# From EP4635945A1, “CRYSTAL FORM OF PROXIMOD, PREPARATION METHOD THEREFOR, AND USE THEREOF” (Jiankuan (Suzhou) Biotechnology Co., Ltd, priority 2022, dated 2024)
# Key:
# Assay type in all cases: physicochemical
# [1] = Fluidity: angle of repose, bulk and tap density, Hausner ratio; settings: hydrochloride
# Method: This experiment was performed by using a tap density tester according to the fixed-volume method. The specific operations are as follows: The weighed powder, with a volume of 50 mL, was loaded into a graduated cylinder, and the graduated cylinder was secured onto a support. The graduated cylinder was set to be vibrated at 55 ± 5 vibrations per minute for 6-8 minutes. The volume change of the powder was measured in a measuring cup. The ratio of the weight of the powder to the volume (50 mL) before tapping is the bulk density of the powder, and the ratio of the weight of the powder to the volume after tapping is the tapped density of the powder.
# The Hausner ratio and the compression degree were converted in the following methods. Hausner ratio = tap density/bulk density [formula] Compression degree = (tapdensity−bulkdensity)/tap density [formula]
# This experiment was performed by a pouring method, and the angles of repose of the drug substances of the two crystal forms were measured in combination with a residual cone method to analyze their fluidities. The specific operations are as follows: The powder was poured onto the center of a disk with a specific diameter, and when the material on the slope of the powder pile began to flow freely out along the periphery of the disk, the pouring of the powder was stopped. The height (h) of the cone was measured, and the angle of repose was calculated in combination with the diameter (2r) of the disk, that is, tanQ = h/r.
# [2] = Intrinsic dissolution of tableted crystal forms; settings: hydrochloride
# [3] = Equilibrium solubility in organic solvents at room temperature (HPLC, XRPD of solids); settings: 24 hours of equilibrium, hydrochloride
# Method: (§1) After 24 hours of equilibrium, the saturated solutions were obtained by filtration. The contents of the samples in the saturated solutions were determined by high-performance liquid chromatography (HPLC) (the filtered solutions were diluted as needed), and the crystal forms of the solids before and after the experiment were characterized by XRPD to check whether phase changes occurred.
# [4] = Compressibility: tableting, hardness and tensile strength; settings: die with a diameter of 6 mm
# Method: In this experiment, a die with a diameter of 6 mm was used. The drug substance and the drug substance + excipient were tableted under the same pressure, respectively. After the elasticity of the prepared tablets was restored, the radial crushing force F, diameter D, and thickness L of the tablets were measured. The tensile strength of the tablets was calculated according to the following formula: Ts = 2F/IIDL.
# [5] = Hygroscopicity by dynamic vapor sorption (DVS)
# Text: In the examples of the present application, the instrument used for the X-ray powder diffraction test is the D2 Phaser produced by Bruker. The instrument used for the differential scanning calorimetry test is the differential scanning calorimeter DSC 250 produced by TA Instruments. The instrument used for the thermogravimetric analysis is the thermogravimetric analyzer TGA 55 produced by TA Instruments. The instrument used for the FT-IR test is the Fourier infrared spectrometer ID1-summit produced by Thermo. The instrument used for the dynamic vapor sorption test is the DVS Intrinsic produced by Surface Measurement Systems (SMS). The instrument used for the microscopy is the microscope NJF-120A produced by Suzhou Nanguang Electronic Technology Co., Ltd.
# [6] = Adhesiveness: PE bag adhesive rate; settings: flipped at 5 rpm, 10 minutes in each direction; hydrochloride
# Method: The bags were sealed, flipped at a rotational speed of 5 rpm for 10 minutes, and continued to be flipped in a different flipping direction at a fixed rotational speed for 10 minutes. The materials were poured out of the bags, and the materials remaining in the bags were accurately weighed to calculate the adhesive rate.
# The adhesive rate was calculated according to the following formula: Adhesive rate = (initialmaterialweight-remainingmaterialweight)/contact surface area. [formula]
# [7] = Dynamic solubility in biorelevant media and buffers at 37 °C (HPLC, XRPD of solids)
# Method: as §1, with “1 hour/2 hours/4 hours/24 hours,” for “24 hours of equilibrium,”, “actual concentrations” for “contents”
# [8] = FaSSIF (pH of 8.0), 1 hour, hydrochloride
# [9] = FaSSIF (pH of 8.0), 2 hours, hydrochloride
# [10] = pH = 4.0 acetic acid-sodium acetate buffer, 1 hour, hydrochloride
# [11] = pH = 4.0 acetic acid-sodium acetate buffer, 2 hours, hydrochloride
# [12] = pH = 4.0 acetic acid-sodium acetate buffer, 4 hours, hydrochloride
# [13] = pH = 4.0 acetic acid-sodium acetate buffer, 24 hours, hydrochloride
# [14] = pH = 6.8 phosphate buffer, 4 hours
# [15] = pH = 6.8 phosphate buffer, 24 hours
smiles,measurement,setting,value
"CCCc1nc(-c2ccc(-c3ccc(CCC(N)(CO)CO)cc3)cc2)co1.Cl [Crystal form B, 2-amino-2-{2-(4'-(2-propyloxazol-4-yl)-[1,1'-biphenyl]-4-yl)ethyl}-1,3-propanediol hydrochloride]",Compression degree,[1]; (tap density − bulk density)/tap density,58.0%
same,Bulk density,"[1]; fixed-volume method, 50 mL",0.14 g/mL
same,Tap density,"[1]; fixed-volume method, after tapping",0.33 g/mL
same,Angle of repose,[1]; pouring method with residual cone method,64.95 °
same,Hausner ratio,[1]; tap density/bulk density,2.4
same,Dissolution amount,"[2]; Medium Water, 5 min",Not detected
same,Dissolution amount,"[2]; Medium Water, 10 min",0.0002 mg/mL
same,Dissolution amount,"[2]; Medium Water, 30 min",0.0003 mg/mL
same,Dissolution amount,"[2]; Medium Water, 45 min",0.0009 mg/mL
same,Dissolution amount,"[2]; Medium Water, 60 min",0.0003 mg/mL
same,Dissolution amount,"[2]; Medium Water, 90 min",0.0004 mg/mL
same,Dissolution amount,"[2]; Medium pH = 4.0, flow rate 4 mL/minute, 5 min",0.0307 mg/mL
same,Dissolution amount,"[2]; Medium pH = 4.0, flow rate 4 mL/minute, 10 min",0.0404 mg/mL
same,Dissolution amount,"[2]; Medium pH = 4.0, flow rate 4 mL/minute, 30 min",0.0461 mg/mL
same,Dissolution amount,"[2]; Medium pH = 4.0, flow rate 4 mL/minute, 45 min",0.0488 mg/mL
same,Dissolution amount,"[2]; Medium pH = 4.0, flow rate 4 mL/minute, 60 min",0.0469 mg/mL
same,Dissolution amount,"[2]; Medium pH = 4.0, flow rate 4 mL/minute, 90 min",0.0487 mg/mL
same,Solubility,[3]; Acetone,32 µg/mL
same,Solubility,[3]; Ethanol,7610 µg/mL
same,Solubility,[3]; Ethyl acetate,Not detected
same,Tensile strength Ts,"[4]; Ts = 2F/IIDL, hydrochloride",0.10
same,Hardness,"[4]; same pressure, hydrochloride",3 N
same,Experimental phenomena,[4]; tableting,Severe punch sticking
same,Weight gain by water absorption (DVS),[5]; 25.6 °C/90% RH,0.30%
same,Hygroscopicity description,"[5]; DVS, 90% RH, hydrochloride",slightly hygroscopic
same,Weight gain by water absorption (DVS),[5]; vapor sorption at 25 °C/90% RH,0.26%
same,PE bag adhesive rate,[6],0.0003 g/cm^2
same,Crystal form of the solid,[7]; [8],Free alkali
same,Solubility,[7]; [8],70 µg/mL
same,Crystal form of the solid,[7]; [9],Free alkali
same,Solubility,[7]; [9],200 µg/mL
same,Crystal form of the solid,"[7]; FaSSIF (pH of 8.0), 4 hours",Free alkali
same,Solubility,"[7]; FaSSIF (pH of 8.0), 4 hours, hydrochloride",410 µg/mL
same,Crystal form of the solid,"[7]; FaSSIF (pH of 8.0), 24 hours",Free alkali
same,Solubility,"[7]; FaSSIF (pH of 8.0), 24 hours, hydrochloride",100 µg/mL
same,Solubility,"[7]; FeSSIF (pH of 5.0), 1 hour, hydrochloride",2580 µg/mL
same,Solubility,"[7]; FeSSIF (pH of 5.0), 2 hours, hydrochloride",2300 µg/mL
same,Solubility,"[7]; FeSSIF (pH of 5.0), 4 hours, hydrochloride",2560 µg/mL
same,Crystal form of the solid,"[7]; FeSSIF (pH of 5.0), 24 hours",no crystal form change
same,Solubility,"[7]; FeSSIF (pH of 5.0), 24 hours, hydrochloride",3460 µg/mL
same,Solubility,"[7]; SGF (pH of 1.0), 1 hour, hydrochloride",310 µg/mL
same,Solubility,"[7]; SGF (pH of 1.0), 2 hours, hydrochloride",270 µg/mL
same,Solubility,"[7]; SGF (pH of 1.0), 4 hours, hydrochloride",290 µg/mL
same,Solubility,"[7]; SGF (pH of 1.0), 24 hours, hydrochloride",310 µg/mL
same,Crystal form of the solid,"[7]; Water, 1 hour, hydrochloride",B + F
same,Solubility,"[7]; Water, 1 hour, hydrochloride",1910 µg/mL
same,Crystal form of the solid,"[7]; Water, 2 hours, hydrochloride",B + F
same,Solubility,"[7]; Water, 2 hours, hydrochloride",2430 µg/mL
same,Crystal form of the solid,"[7]; Water, 4 hours, hydrochloride",B + F
same,Solubility,"[7]; Water, 4 hours, hydrochloride",2240 µg/mL
same,Crystal form of the solid,"[7]; Water, 24 hours, hydrochloride",B + F
same,Solubility,"[7]; Water, 24 hours, hydrochloride",2610 µg/mL
same,Solubility,"[7]; pH = 1.0 hydrochloric acid aqueous solution, 1 hour, hydrochloride",270 µg/mL
same,Solubility,"[7]; pH = 1.0 hydrochloric acid aqueous solution, 2 hours",280 µg/mL
same,Solubility,"[7]; pH = 1.0 hydrochloric acid aqueous solution, 4 hours, hydrochloride",280 µg/mL
same,Solubility,"[7]; pH = 1.0 hydrochloric acid aqueous solution, 24 hours, hydrochloride",300 µg/mL
same,Crystal form of the solid,[7]; [10],B + F
same,Solubility,[7]; [10],1910 µg/mL
same,Crystal form of the solid,[7]; [11],B + F
same,Solubility,[7]; [11],2350 µg/mL
same,Crystal form of the solid,[7]; [12],B + F
same,Solubility,[7]; [12],1990 µg/mL
same,Crystal form of the solid,[7]; [13],B + F
same,Solubility,[7]; [13],2310 µg/mL
same,Crystal form of the solid,"[7]; pH = 6.8 phosphate buffer, 1 hour",Free alkali
same,Solubility,"[7]; pH = 6.8 phosphate buffer, 1 hour, hydrochloride",Not detected
same,Crystal form of the solid,"[7]; pH = 6.8 phosphate buffer, 2 hours",Free alkali
same,Crystal form of the solid,[7]; [14],Free alkali
same,Solubility,[7]; [14],Not detected
same,Crystal form of the solid,[7]; [15],Free alkali
same,Solubility,[7]; [15],Not detected
same,solubility at 2 h,"[7]; phosphate buffer, pH 6.8, aqueous buffer, thermodynamic from solid, pH = 6.8 phosphate buffer, 2 hours",0.28 µg/mL
